Values quoted from earlier work in patent US20100239661A1, “PHARMACEUTICAL COMPOSITIONS OF URSODIOL” (priority 2006, published 2010).
Read-outs that look alike come from different tables or passages of the source.

Experiments:
[1] = unconjugated ursodiol, healthy subjects
[2] = for oral absorption: following oral administration
[3] = not given; remark: listed apart in the source

C[C@H](CCC(=O)O)[C@H]1CC[C@H]2[C@@H]3[C@@H](O)C[C@@H]4C[C@H](O)CC[C@]4(C)[C@H]3CC[C@]12C [Ursodiol, 3α,7β-dihydroxy-5β-cholan-24-oic acid]
bound to plasma protein [1]: at least 70% | solubility (in chloroform): slightly soluble | solubility (in ethanol): freely soluble | solubility (in ether): sparingly soluble | solubility (in glacial acetic acid): freely soluble | solubility (in water): practically insoluble | share of biliary and plasma bile acids ([2]; chronic dose of 13 to 15 mg/kg/day): 30-50% | oral absorption [2]: rapid and complete | oral absorption ([2]; listed as ursodiol): incomplete | hepatic extraction ([2]; once absorbed, in the absence of liver disease): about 50% | urinary excretion ([2]; with treatment, except in severe cholestatic liver disease): less than 1% | solubility (characterisation) [3]: low solubility
